Measurements as given in US7915293B2, “Ubiquitin ligase inhibitors” (Rigel Pharmaceuticals, Inc., priority 2003, dated 2011).

How the values were obtained:
Parameters in all cases: key: “+” indicates that the compound exibits inhibitory activity; “−” indicates that low or no inhibitory activity was observed
HeLa cells [1] = experiment: Cell proliferation assay, photographic image analysis of proliferation, apoptosis and death (PAD assay), HeLa; format: cell-based; conditions: 6 concentrations tested
Procedure, shortened: (§1)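 Cells grown in RPMI with 5% FBS (2,000/well) and dosed 24 h after plating with 6.3-fold dilutions in duplicate (master plate 500× final, top 10 mM stock). After 48 h at 37 °C, cells formamide-fixed and DAPI-stained. Image analysis counted live, apoptotic and dead cells.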

[2] = target: E3 (His-APC11/APC2-"APC") (Homo sapiens, UniProt Q9NYG5+Q9UJX6); experiment: Plate-based E3 ligase assay (APC FLAG), auto-ubiquitination; format: biochemical; conditions: for APC Flag (2 pt): 2 concentrations tested; for APC Flag 8 pt: 8 concentrations tested
Procedure, shortened: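 His-APC11/APC2 auto-ubiquitination was run in casein-blocked nickel plates for 1 h at room temperature, with E1 at 5 ng/well, UbcH5c at 20 ng/well and APC at 100 ng/well. Buffer was 62.5 mM Tris pH 7.6, 3 mM MgCl2, 1 mM DTT, 2.5 mM ATP and Flag-ubiquitin at 100 ng/well. Detection used anti-Flag/HRP chemiluminescence, and IC50 was typically from 6 or 8 concentrations versus a DMSO control.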

A549 cells [3] = experiment: Cell proliferation assay, photographic image analysis of proliferation, apoptosis and death (PAD assay), A549; format: cell-based; conditions: 6 concentrations tested
Procedure, shortened: as §1

HeLa cells [4] = experiment: Non-photographic proliferation analysis (Promega Cell titer Aqueous), HeLa; format: cell-based; conditions: 6 concentrations tested
Protocol: (§2) A549 (ATCC# CCL-185), HeLa (ATCC# CCL-2), HCT116 (ATCC# CCL-247), and H1299 (ATCC# CRL-5803) cells were maintained in T175 flasks following the ATCC recommended media and handling procedures. Flasks reaching approximately 70% confluency were trypsinized and resuspended in RPMI media (Cell-Gro catalog number 10-040-CM) modified to contain 5% FBS, 100 ug/mlPen/Strep (Cell-Gro catalog number 30-002-CL), and 0.3 mg/ml L-Glutamine (Cell-Gro catalog number 25-003-CL). A 20,000 cells/ml solution was made for plating. Cells were plated in black Packard 96 well plates by placing 100 μl per well (2,000 cells per well).
(§3) Compounds and additional media were added 24 hours after cell plating. A compound master plate was created with concentrations 500 times greater than the final concentration added to the cells. All compound testing was done in duplicate using 6.3 fold dilutions starting with 10 mM. All outside wells (and 4 internal wells) were DMSO controls. Taxol and at least one additional control were run on all plates. Three microliters of the compound master plate were added to deep well blocks containing 750 μl of RPMI media. One hundred microliters were transferred from the compound/media deep well blocks to the plated cells resulting in a 500 fold dilution of the compounds. Cells were grown at 37° C., 5% CO2 for 48 hours.
(§4) Some cell plates were treated with Promega Cell titer Aqueous 1 kit (promega—VWR catalog number G3580). In this case, 48 hours after the test compound were added, 100 μl of media were removed and 20 μl of cell titer reagent were added to all wells. Plates were incubated at 37° C. for 45 minutes prior to absorbance reads on the Wallac plate reader at 490 nm for 0.1 sec/well.

A549 cells [5] = experiment: Non-photographic proliferation analysis (Promega Cell titer Aqueous), A549; format: cell-based; conditions: 6 concentrations tested
Protocol: as §2, §3, §4

Chain of E3 (His-APC11/APC2-"APC") (Q9NYG5 whole entry): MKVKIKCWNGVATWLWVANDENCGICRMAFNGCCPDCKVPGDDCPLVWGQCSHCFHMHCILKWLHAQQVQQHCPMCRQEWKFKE
Chain of E3 (His-APC11/APC2-"APC") (Q9UJX6 whole entry): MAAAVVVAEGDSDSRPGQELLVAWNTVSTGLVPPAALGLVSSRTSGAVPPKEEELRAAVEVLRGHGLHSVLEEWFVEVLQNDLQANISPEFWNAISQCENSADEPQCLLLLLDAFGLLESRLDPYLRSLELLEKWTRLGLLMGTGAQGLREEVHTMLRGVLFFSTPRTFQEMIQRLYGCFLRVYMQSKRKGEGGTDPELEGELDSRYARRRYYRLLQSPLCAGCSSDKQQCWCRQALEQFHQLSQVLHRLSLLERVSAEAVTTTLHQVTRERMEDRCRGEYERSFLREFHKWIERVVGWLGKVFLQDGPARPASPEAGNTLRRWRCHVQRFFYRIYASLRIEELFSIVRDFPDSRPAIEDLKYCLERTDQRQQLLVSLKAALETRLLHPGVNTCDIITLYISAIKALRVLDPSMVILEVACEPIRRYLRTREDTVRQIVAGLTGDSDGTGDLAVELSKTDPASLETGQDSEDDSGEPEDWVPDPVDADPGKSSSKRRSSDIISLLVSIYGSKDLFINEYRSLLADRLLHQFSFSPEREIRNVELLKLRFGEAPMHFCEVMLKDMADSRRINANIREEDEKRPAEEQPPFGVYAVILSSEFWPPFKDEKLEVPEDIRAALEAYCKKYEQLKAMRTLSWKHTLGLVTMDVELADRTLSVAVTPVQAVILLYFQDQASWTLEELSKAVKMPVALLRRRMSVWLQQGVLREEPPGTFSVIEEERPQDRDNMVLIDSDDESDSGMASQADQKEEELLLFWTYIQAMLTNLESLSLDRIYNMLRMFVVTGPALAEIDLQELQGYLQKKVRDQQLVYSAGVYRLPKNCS

Row | SMILES | PAD Assay, HELA 6 pt (HeLa cells [1]) | APC Flag (2 pt) [2] | PAD Assay, A549 6 pt (A549 cells [3]) | Cell Titer-Aqueous, HELA 6 pt (HeLa cells [4]) | Cell Titer-Aqueous, A549 6 pt (A549 cells [5]) | APC Flag 8 pt [2]
1 | CS(=O)(=O)c1cccc(NS(=O)(=O)c2cc(Cl)c(Oc3ccc([N+](=O)[O-])cc3Cl)c(Cl)c2)c1 [Compound 173, 3,5-dichloro-4-(2-chloro-4-nitrophenoxy)-N-[3-(methylsulfonyl)phenyl]benzenesulfonamide] | − | − (2 pt) | − | − | − | 
2 | COc1ccc(NS(=O)(=O)c2cc(Cl)c(Oc3ccc([N+](=O)[O-])cc3Cl)c(Cl)c2)cc1 [Compound 208] | + |  | + | + | + | −
3 | O=[N+]([O-])c1ccc(Oc2c(Cl)cc(S(=O)(=O)Nc3ccccc3I)cc2Cl)c(Cl)c1 [Compound 209] | + |  | + | + | + | +
4 | COc1ccc(N(S(=O)(=O)c2cc(Cl)c(Oc3ccc([N+](=O)[O-])cc3Cl)c(Cl)c2)S(=O)(=O)c2cc(Cl)c(Oc3ccc([N+](=O)[O-])cc3Cl)c(Cl)c2)cc1Cl [Example 155, 3,5-dichloro-N-(3-chloro-4-methoxyphenyl)-4-(2-chloro-4-nitrophenoxy)-N-(1,3-dichloro-2-(2-chloro-4-nitrophenoxy)-5-sulfonylbenzene)benzenesulfonamide] |  |  | + | − | − | +
5 | O=[N+]([O-])c1ccc(Oc2c(Cl)cc(S(=O)(=O)Nc3ccccc3Cl)cc2Cl)c(Cl)c1 [Example 156, 3,5-dichloro-4-(2-chloro-4-nitrophenoxy)-N-(2-chlorophenyl)benzenesulfonamide] | + |  |  | + | + | +
6 | O=[N+]([O-])c1ccc(Oc2c(Cl)cc(S(=O)(=O)Nc3cccc(Br)c3)cc2Cl)c(Cl)c1 [Example 159, N-(3-bromophenyl)-3,5-dichloro-4-(2-chloro-4-nitrophenoxy)benzenesulfonamide] | + |  | + | + | + | +
7 | Cc1cccc(C(C)C)c1NS(=O)(=O)c1cc(Cl)c(Oc2ccc([N+](=O)[O-])cc2Cl)c(Cl)c1 [Example 160, 3,5-dichloro-4-(2-chloro-4-nitrophenoxy)-N-(2-isopropyl-6-methylphenyl)benzene-sulfonamide] | + |  | + | + | + | +
8 | O=[N+]([O-])c1ccc(Oc2c(Cl)cc(S(=O)(=O)Nc3ccsc3)cc2Cl)c(Cl)c1 [Example 165, 3,5-dichloro-4-(2-chloro-4-nitrophenoxy)-N-3-thienylbenzenesulfonamide] | + |  | + | + | + | +
9 | COc1cccc(NS(=O)(=O)c2cc(Cl)c(Oc3ccc([N+](=O)[O-])cc3Cl)c(Cl)c2)c1F [Example 166, 3,5-dichloro-4-(2-chloro-4-nitrophenoxy)-N-(2-fluoro-3-methoxyphenyl)benzene-sulfonamide] |  |  |  | + | + | +
10 | O=[N+]([O-])c1ccc(Oc2c(Cl)cc(S(=O)(=O)Nc3cccc4cc[nH]c34)cc2Cl)c(Cl)c1 [Example 168, 3,5-dichloro-4-(2-chloro-4-nitrophenoxy)-N-1H-indol-7-ylbenzenesulfonamide] | + |  | + | + | + | +
11 | COc1ccc(NS(=O)(=O)c2cc(Cl)c(Oc3ccc([N+](=O)[O-])cc3Cl)c(Cl)c2)cc1OC [Example 170, 3,5-dichloro-4-(2-chloro-4-nitrophenoxy)-N-(3,4-dimethoxyphenyl)benzenesulfonamide] |  |  |  | + | + | +
12 | O=[N+]([O-])c1ccc(Oc2c(Cl)cc(S(=O)(=O)Nc3ccc4[nH]ccc4c3)cc2Cl)c(Cl)c1 [Example 174, 3,5-dichloro-4-(2-chloro-4-nitrophenoxy)-N-1H-indol-5-ylbenzenesulfonamide] | + |  | + | + | + | +
13 | O=[N+]([O-])c1ccc(Oc2c(Cl)cc(S(=O)(=O)Nc3cccc4c3oc3ccccc34)cc2Cl)c(Cl)c1 [Example 175, 3,5-dichloro-4-(2-chloro-4-nitrophenoxy)-N-dibenzo[b,d]furan-4-ylbenzenesulfonamide] |  |  |  | − | − | +
14 | O=[N+]([O-])c1ccc(Oc2c(Cl)cc(S(=O)(=O)Nc3cccc(-c4ccccc4)c3)cc2Cl)c(Cl)c1 [Example 179, N-biphenyl-3-yl-3,5-dichloro-4-(2-chloro-4-nitrophenoxy)benzenesulfonamide] |  |  |  | + | − | +
15 | N#Cc1ccc(NS(=O)(=O)c2cc(Cl)c(Oc3ccc([N+](=O)[O-])cc3Cl)c(Cl)c2)cc1 [Example 200, 3,5-dichloro-4-(2-chloro-4-nitrophenoxy)-N-(4-cyanophenyl)benzenesulfonamide] | + |  | + | + | + | +
16 | O=[N+]([O-])c1ccc(Oc2c(Cl)cc(S(=O)(=O)Nc3cccnc3)cc2Cl)c(Cl)c1 [Example 205, 3,5-dichloro-4-(2-chloro-4-nitrophenoxy)-N-pyridin-3-ylbenzenesulfonamide] |  |  |  | − | − | −
17 | COc1ccc(NS(=O)(=O)c2cc(Cl)c(Oc3ccc([N+](=O)[O-])cc3Cl)c(Cl)c2)c(OC)n1 [Example 206, 3,5-dichloro-4-(2-chloro-4-nitrophenoxy)-N-(2,6-dimethoxypyridin-3-yl)benzene-sulfonamide] |  |  |  | + | + | −
18 | O=[N+]([O-])c1ccc(Oc2c(Cl)cc(S(=O)(=O)Nc3cccnc3Cl)cc2Cl)c(Cl)c1 [Example 207, 3,5-dichloro-4-(2-chloro-4-nitrophenoxy)-N-(2-chloropyridin-3-yl)benzenesulfonamide] |  |  |  | + | + | +
19 | CC1(C)Oc2ccc(NS(=O)(=O)c3cc(Cl)c(Oc4ccc([N+](=O)[O-])cc4Cl)c(Cl)c3)cc2NC1=O [Example 213, 3,5-dichloro-4-(2-chloro-4-nitrophenoxy)-N-(2,2-dimethyl-3-oxo-3,4-dihydro-2H-1,4-benzoxazin-6-yl)benzenesulfonamide] |  |  |  | + | + | +
20 | O=[N+]([O-])c1ccc(Oc2c(Cl)cc(S(=O)(=O)Nc3ncccn3)cc2Cl)c(Cl)c1 [Example 222, 3,5-dichloro-4-(2-chloro-4-nitrophenoxy)-N-pyrimidin-2-ylbenzenesulfonamide] |  |  |  | − | − | +
21 | O=[N+]([O-])c1ccc(Oc2c(Cl)cc(S(=O)(=O)NC3Cc4ccccc4C3)cc2Cl)c(Cl)c1 [Example 224, 3,5-dichloro-4-(2-chloro-4-nitrophenoxy)-N-(2,3-dihydro-1H-inden-2-yl)benzene-sulfonamide] |  | − (2 pt) |  | + | + | 
